Consider 7 compounds from patent publication US5885972A, “L-pyranosyl nucleosides” (Genencor International, Inc., priority 1996, dated 1999).

Values after ≈ are worked out from the molar mass of the structure shown. Like-named read-outs stand apart in the source and are kept apart here.

Data set [1] concerns HS578T. As to the kind of experiment: In vitro radiometric (BACTEC) growth inhibition of human tumor cell line HS578T (breast). Type of data set: cell-based. Conditions: Hs-578T; for viability at 10 µg/mL: 10 μg/ml, read-out: % survival tumor. The text has this:
(§1) In vitro activity against certain human tumor cell lines. CELL LINES: Eight different established human cell lines (CALU (lung), COLO320 (colon), H578St (breast), HT-29 (colon), MCF-7 (breast), OM-1 (colon), SKLU (lung), and SKMES (lung) and two control cell lines (bone marrow cell lines and/or fibroblasts) were utilized. All cell lines were obtained from the Tumor Cloning Laboratory, Institute for Drug Development, Cancer Therapy and Research Center, San Antonio, Tex. All cell lines grew as monolayers in the appropriate culture medium supplemented with heat-inactivated calf serum. All reagents were obtained from Grand Island Biological Co., Grand Island, N.Y.
(§2) The iv formulations of the compounds of the present invention were prepared with sterile buffered saline and stored at -70° C. until required for testing.
(§3) Following trypsinization, tumor cells were suspended in tissue culture medium and exposed to the antitumor agents continuously at three different concentrations: 10, 1 and 0.1 μg/ml.
(§4) RADIOMETRIC MEASUREMENT OF GROWTH INHIBITION: Growth inhibition was assessed with the BACTEC System 460 (Johnston Laboratories, Towson, Md.) after addition of the antitumor agent to the cells in the respective growth medium containing ^14 C-glucose at a final concentration of 2 μCi/ml.
(§5) Two mls of the tumor cell suspension containing radioactive glucose were seeded into sterile, disposable 15 ml vials by injection through self-sealing rubber-aluminum caps. […] The seeded vials were then incubated at 37° C. Measurement of the release of ^14 CO2 resulting from the metabolism of ^14 C-glucose were performed on days 6, 9, 12, and 15 in the BACTEC instrument. This instrument flushes the ^14 CO2 containing air out of the vials into an ionization chamber that converts dpm to growth index values. […] Each data point represents triplicate values.
(§6) All compounds were compared on an equimilimolar level.
(§7) All compounds were dosed on an equimilimolar basis. […] [formula] A therapeutic ratio of <80% is considered active. In Vivo Evaluation

The nature of data set [2]: In vitro survival of control bone marrow cells exposed to compound (Table I). In kind it is cell-based. Conditions: human, 10 μg/ml.
Text: as §1
IN VITRO EXPOSURE OF TUMOR CELLS TO COMPOUNDS: Stock solutions of intravenous (iv) formulations of certain of the compounds of the present invention (as shown in Table I below), as well as intravenous formulations of 5-FU (control) were used. The iv formulations of the compounds of the present invention were prepared with sterile buffered saline and stored at -70° C. until required for testing.
as §3
RADIOMETRIC MEASUREMENT OF GROWTH INHIBITION: Growth inhibition was assessed with the BACTEC System 460 (Johnston Laboratories, Towson, Md.) after addition of the antitumor agent to the cells in the respective growth medium containing ^14 C-glucose at a final concentration of 2 μCi/ml. (See generally, C. Arteaga, et al., A Radiometric Method for Evaluation of Chemotherapy Sensitivity: Results of Screening a Panel of Human Breast Cancer Cell Lines, Cancer Research, 47, 6248-6253, (1987).)
Two mls of the tumor cell suspension containing radioactive glucose were seeded into sterile, disposable 15 ml vials by injection through self-sealing rubber-aluminum caps. […] The seeded vials were then incubated at 37° C. Measurement of the release of ^14 CO2 resulting from the metabolism of ^14 C-glucose were performed on days 6, 9, 12, and 15 in the BACTEC instrument. This instrument flushes the ^14 CO2 containing air out of the vials into an ionization chamber that converts dpm to growth index values. Chemotherapy sensitivity was calculated by comparing the growth index values of drug-treated vials to that observed in control vials. Each data point represents triplicate values.
as §6
The data presented in Table I are compared to results achieved with 5-FU as the control. All compounds were dosed on an equimilimolar basis. Inhibitory concentration (IC 50) is defined as the concentration required to kill 50% of the untreated cancer cells. Although the IC 50 of certain of the compounds listed in Table I may be higher than that for 5-FU (the control), the compounds of the present invention are generally less toxic to normal cells such as bone marrow or fibroblasts. […] Additionally, because of their lower toxicity to normal cells, it is anticipated that the present compounds may be dosed at a higher rate to selectively increase toxicity to the cancer cells. In this regard, a therapeutic ratio for a given compound is typically determined by the following calculation. [formula] A therapeutic ratio of <80% is considered active. In Vivo Evaluation

In another data set the test system is HT-29. Nature of the data set: In vitro radiometric (BACTEC) growth inhibition of human tumor cell line HT-29 (colon). In kind it is cell-based. Conditions: for viability at 10 µg/mL: 10 μg/ml.
Text: as §1, §2, §3, §4, §5, §6, §7

For a further data set, the system named is SKLU. Nature of the data set: In vitro radiometric (BACTEC) growth inhibition of human tumor cell line SKLU (lung). Conditions: for viability at 10 µg/mL: 10 μg/ml. Type of data set: cell-based.
Text: as §1, §2, §3, §4, §5, §6, §7

A further data set has as its system MCF-7. Nature of the data set: In vitro radiometric (BACTEC) growth inhibition of human tumor cell line MCF-7 (breast). Type of data set: cell-based. Conditions: for viability at 10 µg/mL: MCF7, MCF-7, 10 μg/ml.
Text: as §1, §2, §3, §4, §5, §6, §7

Another data set has as its system SKMES. Nature of the data set: In vitro radiometric (BACTEC) growth inhibition of human tumor cell line SKMES (lung). In kind it is cell-based.
Text: as §1, §2, §3, §4, §5, §6, §7

The next data set concerns OM-1. As to the kind of experiment: In vitro radiometric (BACTEC) growth inhibition of human tumor cell line OM-1 (colon). Conditions: for viability at 10 µg/mL: OM-1, 10 μg/ml. In kind it is cell-based.
Text: as §1, §2, §3, §4, §5, §6, §7

For another data set, the system named is COLO320. Nature of the data set: In vitro radiometric (BACTEC) growth inhibition of human tumor cell line COLO320 (colon). Type of data set: cell-based.
Text: as §1, with “N.Y. […]” for “N.Y.”
(§8) RADIOMETRIC MEASUREMENT OF GROWTH INHIBITION: Growth inhibition was assessed with the BACTEC System 460 (Johnston Laboratories, Towson, Md.) after addition of the antitumor agent to the cells in the respective growth medium containing ^14 C-glucose at a final concentration of 2 μCi/ml. […]
(§9) Two mls of the tumor cell suspension containing radioactive glucose were seeded into sterile, disposable 15 ml vials by injection through self-sealing rubber-aluminum caps. […] Chemotherapy sensitivity was calculated by comparing the growth index values of drug-treated vials to that observed in control vials. […]

For data set [3], the system named is HS578T. As to the kind of experiment: In vitro radiometric (BACTEC) growth inhibition of human tumor cell line HS578T (breast). In kind it is cell-based. Conditions: Hs-578T, 6 μg/ml, read-out: % survival tumor.
The test system of a further data set is CALU. Nature of the data set: In vitro radiometric (BACTEC) growth inhibition of human tumor cell line CALU (lung). Type of data set: cell-based.
Text: as §1, with “N.Y. […]” for “N.Y.”
as §8, §9

For data set [4] the following is noted: background statement on marketed drug; cited from earlier work.
Setting [5] is: HS578T, continuous exposure, read-out: IC 50.
The mark [6] stands for this setting: continuous exposure, read-out: IC 50.
[7] abbreviates: SKLU, read-out: % survival tumor.
Setting [8] is: SKLU, continuous exposure, read-out: IC 50.
[9] abbreviates: MCF7, MCF-7, continuous exposure, read-out: IC 50.
The mark [10] stands for this setting: OM-1, continuous exposure, read-out: IC 50.
[11] abbreviates: 6 μg/ml, read-out: % survival tumor.

For the compound `O=c1ccn([C@H]2OC[C@H](O)[C@H](O)[C@@H]2O)c(=O)[nH]1` [(3), β-L-ribopyranosyluracil], the viability at 10 µg/mL in the data set on HS578T [1] (HS578T) came to 86.7%. For the same compound, the IC50 with HS578T [1] (setting [5]) is greater than 10 µg/mL. For the same compound, the viability in data set [2] turned out to be 96%.

On to `Nc1nc2c(ncn2[C@H]2OC[C@H](O)[C@H](O)[C@@H]2O)c(=O)[nH]1` [(14), β-L-ribopyranosylguanine], for which, in the data set with HT-29 (read-out: % survival tumor), the viability at 10 µg/mL was 94.8%. Further, in the data set on HT-29 (setting [6]), the IC50 is greater than 10 µg/mL. For the same compound, the viability in [2] is 106%.

Turning to `O=c1[nH]c(=O)n([C@H]2OC[C@H](O)[C@H](O)[C@@H]2O)cc1F` [(5), β-L-ribopyranosyl-5-fluorouracil], the viability at 10 µg/mL worked out at 90.1% in the data set on SKLU (setting [7]); 76.2% with MCF-7 (read-out: % survival tumor); 68.2% in the data set with SKMES (SKMES, 10 μg/ml, read-out: % survival tumor). Moreover, the IC50 in the data set on SKLU (setting [8]) was greater than 10 µg/mL; with MCF-7 (setting [9]), greater than 10 µg/mL; in the data set on SKMES (SKMES, continuous exposure, read-out: IC 50), greater than 10 µg/mL. For the same compound, the viability in [2] amounted to 116%.

`Nc1ccn([C@H]2OC[C@H](O)[C@H](O)[C@@H]2O)c(=O)n1` [(8), β-L-ribopyranosylcytosine]: the viability at 10 µg/mL is 72.2% in the data set on MCF-7 (read-out: % survival tumor), 89.2% in the data set on HS578T [1] (HS578T) and 78.9% in the data set on OM-1 (read-out: % survival tumor). For the same compound, the IC50 in the data set with MCF-7 (setting [9]), in the data set on HS578T [1] (setting [5]) and in the data set with OM-1 (setting [10]) was greater than 10 µg/mL each time. In addition, the viability in data set [2] was found to be 93.1%.

On to `O=c1[nH]cc(F)c(=O)[nH]1` [Compound 5-FU, 5-fluorouracil, reference compound], for which the viability at 6 µg/mL in the data set with COLO320 (COLO 320, 6 μg/ml, read-out: % survival tumor) was found to be 1%; in the data set with SKLU (SKLU, 6 μg/ml, read-out: % survival tumor) it was 24.7%; with MCF-7 (MCF7, MCF-7, 6 μg/ml, read-out: % survival tumor) it was 4.2%; with HT-29 (setting [11]), 5.7%; with SKMES (SKMES, 6 μg/ml, read-out: % survival tumor), 29.1%; in the data set on HS578T [3], 12.5%. For the same compound, the viability at 6 µg/mL with CALU (setting [11]) was 9.9%; in the data set with OM-1 (OM-1, 6 μg/ml, read-out: % survival tumor) it was 20.1%. In addition, the IC50 is less than 0.6 µg/mL in the data set on COLO320 (COLO 320, continuous exposure); 1.05 µg/mL (≈ 8.07 µM) in the data set with SKLU; less than 0.6 µg/mL with MCF-7 (MCF7); 0.61 µg/mL (≈ 4.69 µM) in the data set on HT-29; less than 0.6 µg/mL in the data set on SKMES; less than 0.6 µg/mL in the data set on HS578T [1]. Besides, the IC50 in the data set with CALU (continuous exposure) was less than 0.6 µg/mL; in the data set with OM-1, 1.47 µg/mL (≈ 11.3 µM). Further, the side effects entry in [4] is “GI side effects like nausea, vomiting and diarrhea, leukopenia, thrombocytopenia, alopecia”.

With `Nc1ncnc2c1ncn2[C@H]1OC[C@H](O)[C@H](O)[C@@H]1O` [(11)], the viability at 10 µg/mL was 43.6% in the data set on HS578T [1] (HS578T) and 41.6% in the data set with OM-1 (read-out: % survival tumor). In addition, the IC50 was found to be 7.8 µg/mL (≈ 29.2 µM) in the data set on HS578T [1] (setting [5]) and 8.3 µg/mL (≈ 31.1 µM) in the data set with OM-1 (setting [10]). Also, the viability in [2] amounted to 94.1%.

For the compound `O=c1[nH]c(=O)n([C@@H]2OC[C@H](O)[C@H](O)[C@@H]2O)cc1F` [(18), α-L-ribopyranosyl-5-fluorouracil], the viability at 10 µg/mL in the data set with SKLU (setting [7]) is 78.4%; in the data set on HT-29 (read-out: % survival tumor), 83.1%; in the data set on HS578T [1] (HS578T) it was 83.6%; in the data set with OM-1 (read-out: % survival tumor) it was 82.5%. The IC50 in the data set on SKLU (setting [8]) came to 57.1 µg/mL (≈ 218 µM); with HT-29 (setting [6]), 119 µg/mL (≈ 454 µM); in the data set with HS578T [1] (setting [5]), 50.8 µg/mL (≈ 194 µM); in the data set with OM-1 (setting [10]), 65.1 µg/mL (≈ 248 µM). The viability in data set [2] came out at 166%.
